The values below come from PMC6492180, “Cytome micronucleus assays with a metabolically competent human derived liver cell line (Huh6): A promising approach for routine testing of chemicals?” (Environmental and Molecular Mutagenesis, 2018).

Data set [1] concerns Huh6 cells. The method, then:
All experiments were performed in duplicate.
3.8–4.0 × 10^5 cells per well were seeded into 6‐well plates with 3 mL of RPMI (4% FBS) for 12 hr, then dilutions of stock solutions of the diagnostic mutagens were added for different time periods (4, 24, and 48 hr). In each experimental series solvent controls were included. Subsequently, the cells were washed twice with 3.0 mL medium. […] Finally, the cells were washed and trypsinised. Afterwards the cells were washed twice with 8.0 mL RPMI and collected on slides by cytocentrifugation (600 rpm, 5 min). The slides were air dried, fixed, and stained with DiffQuick according to the instructions of the manufacturer. For each experimental point, two cultures were tested per dose. From each culture ≥1,000 BN cells were evaluated under 400‐fold magnification (Nikon Photophot‐FXA, Tokyo, Japan). At least 2,000 binucleated cells were analyzed per dose for the determination of the different nuclear anomalies (MN, NBuds, and NBs).
The experiments were performed as described in the previous chapter. The cells were exposed only to one dose of the different mutagens and were cultivated after the seeding in 6‐well plates which contained 4% or 10% FBS in RPMI, respectively.
Data were evaluated by generalized linear model with Poisson counts. Chi‐square tests for overdispersion were applied. […] P values ≤0.05 were considered statistically significant.
^150-60 000 cells were seeded in 6 well plates with 3 ml RPMI (4% FBS), subsequently different solutions of the test compound (dissolved in medium) were added. After treatment for different time periods, the cells was washed and processed as described in the Material and Method section. […] From each culture 1000 binoculated cells were evaluated. BN-MN – number of micronucleated cells; MN - total number of micronuclei; CBPI – cytokinesis-block proliferation index
^1The experiments were conducted essentially as described in the footnote of Table S1A-I. *p≤0.05

For data set [2], the system named is HepG2. Particulars: cited from earlier work.
The conditions of data set [3]: ref IARC (2018); cited from earlier work.
Data set [4] concerns Human lymphocytes. The note with it: cited from earlier work.
The test system of data set [5] is HepaRG. The note with it: HepaRG; ref Josse et al., 2012; cited from earlier work.
Where [6] appears, read: 10% FBS, 24 hr treatment, 0.5 µg/ml.
Where [7] appears, read: 10% FBS, 24 hr treatment, 1 µg/ml.

Read-outs that look alike come from different tables or passages of the source. Marks after values point to notes of the source that are not given here.

On to `c1ccc2c(c1)cc1ccc3cccc4ccc2c1c34` [B(a)P, Benzo(a)pyrene], for which the CBPI came to 1.6 ± 0.1 in data set [1] (4% FBS, 4hrs, 5 µM); 1.6 ± 0.0 in data set [1] (4% FBS, 4hrs, 10 µM); 1.6 ± 0.1 in data set [1] (4% FBS, 4hrs, 20 µM); 1.4 ± 0.1 in data set [1] (4% FBS, 24hrs, 5 µM); 1.2 ± 0.1 in data set [1] (4% FBS, 24hrs, 10 µM); 1.9 ± 0.0 in data set [1] (4% FBS, 48hrs, 0.4 µM). Besides, the CBPI is given as 1.1 ± 0.1 in data set [1] (4% FBS, 48hrs, 5 µM); 1.7 ± 0.0 in data set [1] (10% FBS, 24 hr treatment, 5 µM); 1.3 ± 0.1 in data set [1] (10% FBS, 24 hr treatment, 10 µM).

On to `[NH2][Pt]([NH2])([Cl])[Cl]` [CDDP, Cisplatin], for which, in data set [1] (4% FBS), the “MN effects after 24 hr (or longer) compared with 4 hr treatment (in words)” value is given as “similar”. For the same compound, the “Toxicity in MN experiment (Figure 3)” value in data set [1] (4% FBS, 1.0 μg/ml, 48h) is “Toxic”. Further, the “BN-MN (number of micronucleated cells)” value in data set [1] (4% FBS, 4hrs, 0.05 µg/ml) is recorded as 16.0 ± 1.4 ‰; in data set [1] (4% FBS, 4hrs, 0.1 µg/ml) it was 19.5 ± 0.7 ‰; in data set [1] (4% FBS, 4hrs, 0.5 µg/ml) it was 19.5 ± 0.7 ‰; in data set [1] (4% FBS, 4hrs, 1 µg/ml) it was 31.5 ± 5.0* ‰; in data set [1] (4% FBS, 24hrs, 0.1 µg/ml), 13.5 ± 0.7 ‰; in data set [1] (4% FBS, 24hrs, 0.5 µg/ml) it was 25.5 ± 0.7* ‰. In addition, the “BN-MN (number of micronucleated cells)” value is 29.5 ± 0.7* ‰ in data set [1] (4% FBS, 24hrs, 1 µg/ml); 16.5 ± 0.7 ‰ in data set [1] (4% FBS, 48hrs, 0.1 µg/ml); 20.0 ± 1.4 ‰ in data set [1] (4% FBS, 48hrs, […]); 38.0 ± 1.4* in data set [1] (setting [6]); 46.5 ± 2.1* in data set [1] (setting [7]). In addition, the Bridges is reported as 0.0 ± 0.0 ‰ in data set [1] (4% FBS, 4hrs, 0.05 µg/ml); 0.0 ± 0.0 ‰ in data set [1] (4% FBS, 4hrs, 0.1 µg/ml); 0.0 ± 0.0 ‰ in data set [1] (4% FBS, 4hrs, 0.5 µg/ml); 3.5 ± 0.7 ‰ in data set [1] (4% FBS, 4hrs, 1 µg/ml); 0.0 ± 0.0 ‰ in data set [1] (4% FBS, 24hrs, 0.1 µg/ml); 2.5 ± 0.7 ‰ in data set [1] (4% FBS, 24hrs, 0.5 µg/ml). The Bridges in data set [1] (4% FBS, 24hrs, 1 µg/ml) is reported as 5.0 ± 1.4 ‰; in data set [1] (4% FBS, 48hrs, 0.1 µg/ml) it was 0.0 ± 0.0 ‰; in data set [1] (setting [6]) it was 0.5 ± 0.7. Moreover, the Buds in data set [1] (4% FBS, 4hrs, 0.05 µg/ml) was 15.5 ± 2.1 ‰; in data set [1] (4% FBS, 4hrs, 0.1 µg/ml) it was 16.5 ± 2.1 ‰; in data set [1] (4% FBS, 4hrs, 0.5 µg/ml) it was 19.0 ± 1.4* ‰; in data set [1] (4% FBS, 4hrs, 1 µg/ml) it was 34.0 ± 5.7* ‰; in data set [1] (4% FBS, 24hrs, 0.1 µg/ml), 15.5 ± 0.7 ‰; in data set [1] (4% FBS, 24hrs, 0.5 µg/ml) it was 30.5 ± 2.1* ‰. The Buds is 36.0 ± 2.8* ‰ in data set [1] (4% FBS, 24hrs, 1 µg/ml); 21.5 ± 2.1 ‰ in data set [1] (4% FBS, 48hrs, 0.1 µg/ml); 32.0 ± 5.7* in data set [1] (setting [6]); 49.0 ± 2.8* in data set [1] (setting [7]). Moreover, the CBPI in data set [1] (4% FBS, 4hrs, 0.05 µg/ml) is 1.7 ± 0.1; in data set [1] (4% FBS, 4hrs, 0.1 µg/ml), 1.6 ± 0.1; in data set [1] (4% FBS, 4hrs, 0.5 µg/ml), 1.8 ± 0.1; in data set [1] (4% FBS, 4hrs, 1 µg/ml) it was 1.5 ± 0.1; in data set [1] (4% FBS, 24hrs, 0.1 µg/ml) it was 1.8 ± 0.1; in data set [1] (4% FBS, 24hrs, 0.5 µg/ml), 2.0 ± 0.0. The CBPI in data set [1] (4% FBS, 24hrs, 1 µg/ml) was 1.8 ± 0.0; in data set [1] (4% FBS, 48hrs, 0.1 µg/ml) it was 1.6 ± 0.0; in data set [1] (4% FBS, 48hrs, 1 µg/ml), 1.2 ± 0.1; in data set [1] (setting [6]), 1.9 ± 0.0; in data set [1] (setting [7]), 1.9 ± 0.1. Moreover, the “MN (total number of micronuclei)” value in data set [1] (4% FBS, 4hrs, 0.05 µg/ml) was 16.0 ± 1.4 ‰; in data set [1] (4% FBS, 4hrs, 0.1 µg/ml), 20.0 ± 1.4 ‰; in data set [1] (4% FBS, 4hrs, 0.5 µg/ml), 21.5 ± 0.7 ‰; in data set [1] (4% FBS, 4hrs, 1 µg/ml) it was 33.5 ± 5.0* ‰; in data set [1] (4% FBS, 24hrs, 0.1 µg/ml), 14.0 ± 0.0 ‰; in data set [1] (4% FBS, 24hrs, 0.5 µg/ml), 34.0 ± 1.4* ‰. The “MN (total number of micronuclei)” value in data set [1] (4% FBS, 24hrs, 1 µg/ml) is 35.0 ± 1.4* ‰; in data set [1] (4% FBS, 48hrs, 0.1 µg/ml), 17.0 ± 1.4 ‰; in data set [1] (4% FBS, 48hrs, […]), 20.5 ± 0.7 ‰; in data set [1] (setting [6]) it was 40.5 ± 0.7*; in data set [1] (setting [7]), 50.0 ± 1.4*. Also, the “MN frequencies with 10% serum compared with 4% serum (in words)” value in data set [1] (24 hr treatment) was “pronounced increase”. Also, the “Lowest effective concentration (LOEC) in micronucleus experiments” value (from here on “Lowest effective concentration (LOEC)”) in data set [1] (Huh6) is 0.5 µg/mL; in data set [2] (HepG2, ref Gajski et al., 2016), 0.1 (Gajski et al., 2016) μg/mL; in data set [4] (Human lymphocytes, ref Fowler et al., 2014), 1.0 (Fowler et al., 2014) μg/mL. For the same compound, in data set [3], the IARC classification entry was “Crosslinking agent; causes different types of DNA damage (gene mutations and CA); IARC: Group 2A”.

With `COc1cc([C@@H]2c3cc4c(cc3[C@@H](O[C@@H]3O[C@@H]5CO[C@@H](C)O[C@H]5[C@H](O)[C@H]3O)[C@H]3COC(=O)[C@H]23)OCO4)cc(OC)c1O` [Etoposide], the CBPI in data set [1] (4% FBS, 4hrs, 0.01 µg/ml) came to 1.8 ± 0.1; in data set [1] (4% FBS, 4hrs, 0.05 µg/ml) it was 1.8 ± 0.1; in data set [1] (4% FBS, 4hrs, 0.1 µg/ml) it was 1.8 ± 0.1; in data set [1] (4% FBS, 24hrs, 0.01 µg/ml) it was 1.9 ± 0.0; in data set [1] (4% FBS, 24hrs, 0.1 µg/ml), 1.8 ± 0.0; in data set [1] (4% FBS, 48hrs, 0.01 µg/ml), 1.7 ± 0.0. Further, the CBPI in data set [1] (4% FBS, 48hrs, 0.1 µg/ml) was found to be 1.1 ± 0.0; in data set [1] (10% FBS, 24 hr treatment, 0.1 µg/ml), 1.9 ± 0.0.

On to `OO` [H2O2, Hydrogen peroxide], for which, in data set [1], the “Change of MN rates after 48 hr treatment (in words)” value is on record as “slight decrease”, the “Induction of MN after 4 hr treatment (in words)” value is “did not cause an effect”, the “Lowest effective concentration (LOEC)” value is 10.0 µM and the “MN effects after 24 hr (or longer) compared with 4 hr treatment (in words)” value is given as “more pronounced effects”. Besides, the “MN frequencies with 10% serum compared with 4% serum (in words)” value in data set [1] is “not increased”. In addition, the “Lowest effective concentration (LOEC)” value in data set [4] was 100 (Andreoli et al., 1999) μM.

In the case of `O=P1(N(CCCl)CCCl)NCCCO1` (stereo not shown) [cyclophosphamide], the “MN induction after 28 hr compared with 1 hr exposure (in words)” value in data set [2] is given as “stronger effects”.

Consider `ClC(Cl)=C(c1ccc(Cl)cc1)c1ccc(Cl)cc1` [dichlorodiphenyldichloroethylene], for which the “MN formation with the longer exposure time, treatment for 1 or 7 days (in words)” value in data set [5] is given as “no such effects”.

For the compound `COC(=O)Nc1nc2cc(C(=O)c3cccs3)ccc2[nH]1` [noctazole], the “MN formation with the longer exposure time, treatment for 1 or 7 days (in words)” value in data set [5] is reported as “no such effects”.
